Assay results as given in patent US20020103107A1, “Screening assay for anti-thrombotic/anti-platelet activity” (priority 2000, published 2002).
Values belong to the molecule of their own block, whether it stands above or below them.

What was measured:
GP Ib = experiment: Platelet aggregation via the GP Ib pathway (α-thrombin with PAR-1 blocked / polymerizing fibrin); type: cell-based, human
Procedure: This antibody is known to selectively bind to the thrombin binding site.
The presence of three distinct thrombin receptors on human platelets was shown in experiments with combinations of inhibitors and PAR-4 desensitization. Platelets treated with SCH203099 (7.5 μM) plus ATAP-2 (50 μg/ml) have the PAR-1 receptor blocked at two levels, the tethered ligand and the PAR-1 receptor site for the tethered ligand. […] The delay in aggregation can be explained by the time required for the generation of polymerizing fibrin which would participate in platelet aggregation. This alternative α-thrombin pathway would be obscured normally by the rapid acting PAR-1 pathway.
(§1) AEBSF blocks the catalytic site, but not the GP Ib-binding site of thrombin. Platelets were treated under identical conditions with AEBSF plus the thrombin substrate CBS 34.47 (7.5 μM) in order to determine if AEBSF remains active in the presence of the polymerizing fibrin-thrombin complex. After 5 minutes incubation, the platelets were pelleted in a microcentrifuge for 4 minutes at 14,000 rpm and the generation of product was monitored at 405 nm. AEBSF inhibited thrombin activity in excess of 90%.

human platelets = experiment: Platelet aggregation of washed platelets (aggregometer), α-thrombin and other agonists
Procedure: The requirement of GP Ib for polymerizing fibrin was defined in a series of studies where results were compared with thrombin plus fibrinogen added to platelets versus platelets added to polymerizing fibrin. Washed platelets (50 μl) as a 10× concentrate were added to 0.05 to 0.1 U/ml α-thrombin plus fibrinogen pre-incubated for 2 minutes (polymerizing fibrin) in 430 μl buffer.
Blood was drawn by venopuncture into plastic tubes that contained 1/10 volume 3.8% citrate and platelet-rich plasma (PRP) was prepared in accordance with known techniques (Soslau, G. and J. Giles. 1982. Thrombos. Res. 26:443-455). Blood samples were obtained from healthy donors who were medication free. Washed platelets were prepared from the PRP by known methods (Basheer, A. R. et al. 1995. Biochim. Biophys. Acta 1250:97-109). Briefly, PRP was diluted with 3 volumes of 100 nM citrate buffer (pH 6.0) plus 1 to 2 volumes of hepes Tyrode's buffer (pH 7.4), final volume of 50 ml, and resuspended in hepes Tyrode's buffer with 1 mg/ml dextrose plus 1 mg/ml bovine serum albumin at 2×10^6/μl to 3×10^6/μl (a 10× normal concentration).
Platelet aggregations were performed on a dual-channel Chronolog lumi aggregometer (Chronolog Corp., Havertown, Pa.) by known methods (Soslau, G. et al. 1988. Biochem. Biophys. Res. Commun. 15:909-916). Aggregations were conducted with 480 μl washed platelets or a 50 μl sample of the concentrated platelets added to 430 μl hepes Tyrode's buffer with a final platelet count of 2×0^5/μl to 3×10^5/μl. Agonists and antagonists were added at various concentrations.

thrombin = experiment: Thrombin activity with thrombin substrate CBS 34.47, product monitored at 405 nm; type: biochemical; settings: in presence of polymerizing fibrin-thrombin complex and platelets; CBS 34.47 7.5 μM; 5 minutes incubation
Procedure: as §1

PAR-4 = target: T1, PAR-4 (Homo sapiens, UniProt Q96RI0); experiment: Platelet aggregation via the PAR-4 pathway (TRAP-4 / γ-thrombin); type: cell-based; settings: SCH203099 5 to 10 μM
T1 sequence (Q96RI0 18-385): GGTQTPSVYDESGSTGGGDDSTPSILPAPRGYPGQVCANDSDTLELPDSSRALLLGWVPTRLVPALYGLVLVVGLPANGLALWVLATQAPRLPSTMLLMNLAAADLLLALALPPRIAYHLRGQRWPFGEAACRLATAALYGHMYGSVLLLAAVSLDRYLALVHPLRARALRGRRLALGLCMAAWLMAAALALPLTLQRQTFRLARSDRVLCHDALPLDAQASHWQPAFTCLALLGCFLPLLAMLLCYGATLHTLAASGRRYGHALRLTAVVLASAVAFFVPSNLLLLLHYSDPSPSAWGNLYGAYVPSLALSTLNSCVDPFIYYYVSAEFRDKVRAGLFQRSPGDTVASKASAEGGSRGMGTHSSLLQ

platelets [1] = experiment: Calcium mobilization in Fura-2 loaded platelets; type: cell-based, human; settings: 10 μM SCH 203099 for one hour
Procedure: (§2) Further studies were conducted to distinguish between polymerizing fibrin-dependent platelet aggregation versus platelet trapping. True platelet aggregation involves signal transduction, second messenger formation with subsequent mobilization of internal calcium stores and the platelet release reaction. Platelet trapping, in contrast, by polymerizing fibrin would not involve any of these secondary responses. […] The platelet release reaction was monitored by release of dense granule ATP. Here the release reaction was followed simultaneously with aggregation. […] However, conditions that induced platelet adhesion/polymerizing fibrin-trapping were not associated with any ATP release.
The mobilization of internal stores of calcium, [Ca^+2]i, was monitored with a Hitachi F-2000 fluorescence spectrophotometer in the presence of extracellular EGTA to chelate the extracellular Ca^+2 (Soslau, G. et al. 1995. Biochim. Biophys. Acta 1268:73-80). Platelets, as PRP, were pre-loaded with 1 μM Fura-2 AM for 45 to 60 minutes and then washed and resuspended in hepes Tyrode's buffer at a concentration of […]. Samples were incubated at room temperature with or without 10 μM SCH 203099 for one hour prior to analysis. […] Agonists were added through an injection port at various concentrations. Excitation wavelengths were 340 nm and 380 nm and emission was measured at 505 nm. […]

PAR-1 = PAR-1 (Homo sapiens, UniProt P25116); experiment: Platelet aggregation via the PAR-1 pathway (TRAP-1 / rapid onset α-thrombin response); type: cell-based
Description: Therefore, GP Ib is the likely candidate.

platelets [2] = experiment: Synergistic platelet aggregation with suboptimal doses of agonists; type: cell-based, human; settings: PAR1 inactivated
Procedure: In all cases, the sum of the aggregation induced by the individual agonists at suboptimal concentrations varied between 0 and 15% (agonist concentrations varied between 0.01 and 0.005 U/ml for α-thrombin; 0.1 to 2 nM for γ-thrombin; 0.38 to 0.76 μM for TRAP-1; 175 to 350 μM for TRAP-4). The low dose of α-thrombin employed was below the level required to function at PAR-1 or PAR-4 but adequate to activate GP Ib. TRAP-4 and γ-thrombin appeared to function only at PAR-4.

platelets [3] = experiment: ATP release (platelet release reaction); type: cell-based, human; settings: versus corresponding control samples
Procedure: as §2
The platelet release reaction was monitored simultaneously in some experiments with aggregation per known techniques (Soslau, G. and J. Parker. 1992. Thromb. Res. 66:15-21). The release of dense granule ATP from aggregating platelets was detected as light emission in the Chronolog lumi-aggregometer produced by the reaction of ATP with luciferin catalyzed by luficerase (chrono-lume).

platelets [4] = experiment: Platelet aggregation induced by U46619 and ADP; type: cell-based, human
β-thrombin = experiment: Sensitivity of β-thrombin to thrombin inhibitors; type: cell-based
α-thrombin = experiment: Sensitivity of α-thrombin to thrombin inhibitors; type: cell-based
γ-thrombin = experiment: Sensitivity of γ-thrombin to thrombin inhibitors; type: cell-based

PAR-1, sequence (P25116 22-425): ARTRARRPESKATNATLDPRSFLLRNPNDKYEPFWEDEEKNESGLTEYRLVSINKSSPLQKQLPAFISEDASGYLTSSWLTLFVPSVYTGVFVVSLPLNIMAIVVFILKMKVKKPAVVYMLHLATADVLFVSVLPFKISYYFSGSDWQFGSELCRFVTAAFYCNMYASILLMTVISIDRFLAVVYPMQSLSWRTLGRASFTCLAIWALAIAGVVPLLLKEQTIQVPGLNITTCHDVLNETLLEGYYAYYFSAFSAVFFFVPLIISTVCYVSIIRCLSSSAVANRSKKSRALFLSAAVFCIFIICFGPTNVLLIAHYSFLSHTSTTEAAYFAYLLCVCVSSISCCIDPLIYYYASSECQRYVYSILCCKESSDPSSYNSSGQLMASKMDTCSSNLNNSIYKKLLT

Molecule: NCCc1ccc(S(=O)(=O)F)cc1 [AEBSF]
effect on aggregation, added after formation of the thrombin-fibrin complex but prior to the addition of platelets (GP Ib): did not inhibit | effect on aggregation, added to thrombin prior to the addition of fibrinogen and platelets (human platelets): completely inhibited | inhibition of thrombin activity (thrombin): > 90%

inhibition of platelet activation induced by TRAP-4 (PAR-4; 1 mM TRAP-4): did not inhibit | inhibition of platelet activation induced by γ-thrombin (PAR-4; 10 to 30 nM γ-thrombin): did not inhibit | inhibition of TRAP-1-induced aggregation (PAR-1; SCH203099 5 to 10 μM): completely inhibited
Molecule: CNc1nc(NC2CC2)nc2ccc3c(ccn3Cc3ccc(C(C)C)cc3)c12 [SCH203099]
mobilization of internal calcium in response to TRAP-1 in treated platelets (platelets [1]): only control platelets responded | mobilization of internal calcium in response to α-thrombin in treated platelets (platelets [1]; compared to controls): delayed | response of treated platelets to low dose α-thrombin plus TRAP-4 (platelets [2]): significant response | aggregation profile of preincubated/treated platelets stimulated with α-thrombin (human platelets; relative to controls, ultimately reached a similar level of aggregation): delayed aggregation profile | ATP release of drug-treated platelets aggregating under conditions dependent on polymerizing fibrin (platelets [3]): equal amounts of ATP release

Molecule: GPRP
effect on α-thrombin-induced platelet aggregation (human platelets; thrombin plus fibrinogen): no significant effect

effect on rapid onset α-thrombin-induced PAR-1 pathway aggregation (PAR-1; for the first few minutes, aggregation then ensued via the GP Ib pathway): inhibited | effect on aggregation via the PAR-1 pathway when γ407 replaced normal fibrinogen (PAR-1; until γ407 began to polymerize): initially blocked
Molecule: RGDS
aggregation with polymerizing γ407 via the GP Ib pathway in the presence of RGDS (GP Ib): at a reduced level | effect on aggregation in the presence of polymerizing fibrin (GP Ib; platelets added to α-thrombin plus fibrinogen pre-incubated 2 minutes): not affected significantly | aggregation in the presence of RGDS without added fibrinogen (human platelets; residual adhering/endogenous fibrinogen only): none occurred | effect on aggregation induced by ADP (platelets [4]): completely blocked | effect on aggregation induced by U46619 (platelets [4]): completely blocked

Molecule: hirudin
inhibition of β-thrombin (β-thrombin): completely inhibited | inhibition of α-thrombin (α-thrombin): completely inhibited | effect on aggregation, inhibitor added 2 minutes after fibrinogen was pre-incubated with thrombin, platelets added 30 seconds later (GP Ib; polymerizing fibrin present): prevent aggregation completely | effect on aggregation, inhibitor added to platelets followed by thrombin plus fibrinogen (human platelets; hirudin 1 to 2 U/ml): completely inhibited | sensitivity of γ-thrombin to the inhibitor (γ-thrombin): totally insensitive
